In experiment [1] the target is T1, EP3 receptor (Homo sapiens, UniProt P43115).
T1 construct: purchased Millipore HTS092M
T1 sequence (P43115 1-390): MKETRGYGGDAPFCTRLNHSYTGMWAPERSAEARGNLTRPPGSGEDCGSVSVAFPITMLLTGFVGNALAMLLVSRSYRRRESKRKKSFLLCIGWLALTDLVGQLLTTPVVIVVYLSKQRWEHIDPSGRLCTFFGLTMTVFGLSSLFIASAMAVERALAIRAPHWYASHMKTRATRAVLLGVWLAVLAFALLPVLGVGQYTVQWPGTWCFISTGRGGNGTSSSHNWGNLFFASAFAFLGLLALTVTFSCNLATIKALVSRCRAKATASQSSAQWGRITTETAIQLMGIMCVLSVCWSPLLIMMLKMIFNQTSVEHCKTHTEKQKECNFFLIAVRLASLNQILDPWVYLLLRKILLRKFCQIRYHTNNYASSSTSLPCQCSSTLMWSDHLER
Nature of the experiment: [3H]-PGE2 binding assay (EP3 competition binding). To be noted: read-out: [3H]-PGE2 Binding Ki. The protocol:
EP3 competition binding was determined using the following materials and experimental conditions:
Beads=Perkin Elmer RPNQ0001
EP3 membrane=Millipore HTS092M
Membrane concentration=2 μg/well
Beads concentration=0.25 mg/well
[3H]-PGE2=2 nM; DMSO—0.1%
Binding buffer=50 mM Tris, 10 mM MgCl2, 1 mM • EDTA, PH 7.4.
The binding buffer was removed from refrigeration (@ 4° C.) and allowed to warm to room temperature. Test compound (@ stock concentration of […] in DMSO) was serial dilutes (1:3) with 100% DMSO using Echo plate. Diluted test compound (30 nL) was dispensed to the 384-well assay plate (using Echo 550 Labcyte System). To each well was then added assay buffer (5 μl) and each well was spun. Beads were weighed out, dissolved in assay buffer to a concentration of 0.25 mg/15 μl. Original membrane was diluted with assay buffer to a concentration of 2 μg/5 μl. […] To each test well were then added diluted [3H]-PGE2 (5 μl), diluted membrane (5 μl), and dissolved beads (15 μl). The plate was equilibrated at room temperature on a plate shaker for 2 hours and then read with a TOPCOUNT scintillation plate reader. Results were analyzed using a Prism program with non-linear regression, one-site fit for Ki.

In experiment [2] the target is T1, EP3 receptor. The experiment can be described thus: CHO cell cAMP assay (forskolin and sulprostone stimulated, HTRF). The format is cell-based. To be noted: CHO cells; sulprostone 700 nM (EC80) and FSK 2 μM (EC70), 37° C. for 30 minutes; read-out: CHO_cAMP IC50. The protocol: For detection, a homogeneous competitive immunoassay (Time Resolved Fluorescence Energy Transfer (hTR-FRET)) was used.
Cells (6K cells per well) were plated in Poly-D-Lysine coated plates the day before the assay was to be run and were incubated at 37° C. […] At the start of the assay the buffer was removed from the cells and replaced with buffer containing test compound(s). Sulprostone at an EC80 dose (700 nM) and FSK at an EC70 dose (2 μM) were added to initiate the reaction (37° C. for 30 minutes).
FSK increases cAMP production and sulprostone decreases cAMP production produced by FSK. In this assay, EP3 antagonists will increase the cAMP to the level of cAMP generated by FSK alone.
Approximately one hour later the plates were read on an Envision (Perkin Elmer) in HTRF mode.
NSP, NSN, NSsample were converted to nM cAMP using the following equation: […]
IC50 values were determined from a […] (Hill equation) of a single 11-point compound dosing.
(In general: cAMP levels reflect the balance of adenylyl cyclase and phosphodiesterase activity.)

Molecules are shown by their SMILES.

`CCn1ncc2c(F)cc(-c3ccc(C(CN4CCN(S(C)(=O)=O)CC4)C(C)C)c(=O)[nH]3)cc21` (stereo not shown) [Compound #109, 6-(1-ethyl-4-fluoro-1H-indazol-6-yl)-3-(3-methyl-1-(4-(methylsulfonyl)piperazin-1-yl)butan-2-yl)pyridin-2(1H)-one]: at EP3 receptor [1], the Ki came to 27 nM. Moreover, at EP3 receptor [2], the IC50 turned out to be 115 nM.

`Cc1cc(C(CC2OC(=O)NC2=O)C(C)C)c(=O)[nH]c1-c1ccc2cccc(F)c2c1` (stereo not shown) [Compound #112]: the Ki at EP3 receptor [1] came to 57 nM. Besides, at EP3 receptor [2], the IC50 is 212 nM.

In the case of `CCN1C(=O)COc2c(F)cc(-c3ccc(C(CN4CCS(=O)(=O)CC4)C(C)C)c(=O)[nH]3)cc21` (stereo not shown) [Compound #128, 4-{2-[6-(4-ethyl-8-fluoro-3-oxo-2H-1,4-benzoxazin-6-yl)-2-oxo-1H-pyridin-3-yl]-3-methylbutyl},4-thiomorpholine-1,1-dione], at EP3 receptor [1], the Ki came out at 154 nM. Besides, the IC50 at EP3 receptor [2] came to 18000 nM.

For `CCN1CCOc2c(F)cc(-c3ccc(C(CN4CCS(=O)(=O)CC4)C(C)C)c(=O)[nH]3)cc21` (stereo not shown) [Compound #129, 4-{2-[6-(4-ethyl-8-fluoro-2,3-dihydro-1,4-benzoxazin-6-yl)-2-oxo-1H-pyridin-3-yl]-3-methylbutyl}-1,4-thiomorpholine-1,1-dione], the inhibition constant (Ki) at EP3 receptor [1] stood at 6 nM. The IC50 on EP3 receptor [2] was determined as 149 nM.

Consider `CCn1ncc2c(F)cc(-c3ccc(C(CN4CCS(=O)(=O)CC4)C(C)C)c(=O)[nH]3)cc21` (stereo not shown) [Compound #133, 4-{2-[6-(1-ethyl-4-fluoroindazol-6-yl)-2-oxo-1H-pyridin-3-yl]-3-methylbutyl},4-thiomorpholine-1,1-dione], for which, at EP3 receptor [1], the Ki was 12 nM. The IC50 on EP3 receptor [2] was determined as 235 nM.

For the molecule `CC(C)C(c1ccc(-c2ccc3cccc(F)c3c2)[nH]c1=O)n1ccnc1N` (stereo not shown) [Compound #162, 3-(1-(2-amino-1H-imidazol-1-yl)-2-methylpropyl)-6-(8-fluoronaphthalen-2-yl)pyridin-2(1H)-one], the Ki at EP3 receptor [1] turned out to be 13 nM. The IC50 at EP3 receptor [2] was determined as 117 nM.

For the molecule `CCN1CCOc2ccc(-c3ccc(C(C(C)C)N4CCSCC4)c(=O)[nH]3)cc21` (stereo not shown) [Compound #164, 6-(4-ethyl-3,4-dihydro-2H-benzo[b][1,4]oxazin-6-yl)-3-(2-methyl-1-thiomorpholinopropyl)pyridin-2(1H)-one], the Ki on EP3 receptor [1] is 26 nM. Besides, the 50% inhibitory concentration (IC50) on EP3 receptor [2] came to 485 nM.

Take `CC(C)C(NS(=O)(=O)C1CCCCC1)c1ccc(-c2ccc3cccc(F)c3c2)[nH]c1=O` (stereo not shown) [Compound #165, N-(1-(6-(8-fluoronaphthalen-2-yl)-2-oxo-1,2-dihydropyridin-3-yl)-2-methylpropyl)cyclohexanesulfonamide]: on EP3 receptor [1], the Ki stood at 31 nM. Also, the IC50 at EP3 receptor [2] was 250 nM.

As for `CCn1ncc2c(F)cc(-c3ccc(C(C(C)C)N4CCS(=O)(=O)CC4)c(=O)[nH]3)cc21` (stereo not shown) [Compound #168, 3-(1-(1,1-dioxidothiomorpholino)-2-methylpropyl)-6-(1-ethyl-4-fluoro-1H-indazol-6-yl)pyridin-2(1H)-one], the Ki at EP3 receptor [1] amounted to 26 nM. Besides, at EP3 receptor [2], the IC50 stood at 130 nM.

With `CCN1CCOc2ccc(-c3ccc(C(C(C)C)N4CCS(=O)(=O)CC4)c(=O)[nH]3)cc21` (stereo not shown) [Compound #169, 3-(1-(1,1-dioxidothiomorpholino)-2-methylpropyl)-6-(4-ethyl-3,4-dihydro-2H-benzo[b][1,4]oxazin-6-yl)pyridin-2(1H)-one], at EP3 receptor [1], the Ki is 51 nM. Moreover, the IC50 on EP3 receptor [2] came to 476 nM.

On to `CC(C)C1(Cc2ccc(-c3ccc4cccc(F)c4c3)[nH]c2=O)OC(=O)NC1=O` (stereo not shown) [Compound #262, 5-((6-(8-fluoronaphthalen-2-yl)-2-oxo-1,2-dihydropyridin-3-yl)methyl)-5-isopropyloxazolidine-2,4-dione], for which the Ki at EP3 receptor [1] turned out to be 152 nM. Further, the IC50 on EP3 receptor [2] worked out at 282 nM.

For `CC(C)C(Cc1cc(Cl)c(-c2ccc3cccc(F)c3c2)[nH]c1=O)c1noc(=O)[nH]1` (stereo not shown) [Compound #272, 3-(1-(5-chloro-6-(8-fluoronaphthalen-2-yl)-2-oxo-1,2-dihydropyridin-3-yl)-3-methylbutan-2-yl)-1,2,4-oxadiazol-5(4H)-one], at EP3 receptor [1], the Ki was > 10000 nM. Besides, the IC50 at EP3 receptor [2] was > 20000 nM.

With `CCn1ncc2c(F)cc(-c3ccc(C(c4noc(=O)[nH]4)C(C)C)c(=O)[nH]3)cc21` (stereo not shown) [Compound #277, 3-(1-(6-(1-ethyl-4-fluoro-1H-indazol-6-yl)-2-oxo-1,2-dihydropyridin-3-yl)-2-methylpropyl)-1,2,4-oxadiazol-5(4H)-one], the Ki at EP3 receptor [1] was 107 nM. Further, the IC50 at EP3 receptor [2] stood at 548 nM.

With `CCN1CCOc2ccc(-c3ccc(C(c4noc(=O)[nH]4)C(C)C)c(=O)[nH]3)cc21` (stereo not shown) [Compound #278, 3-(1-(6-(4-ethyl-3,4-dihydro-2H-benzo[b][1,4]oxazin-6-yl)-2-oxo-1,2-dihydropyridin-3-yl)-2-methylpropyl)-1,2,4-oxadiazol-5(4H)-one], the Ki at EP3 receptor [1] stood at 368 nM. For the same molecule, the half-inhibitory concentration (IC50) on EP3 receptor [2] was 591 nM.

Regarding `CCOC(=O)C(C1=CCCCC1)c1ccc(-c2ccc3ccccc3c2)[nH]c1=O` (stereo not shown) [Compound #280, ethyl 2-(cyclohex-1-en-1-yl)-2-(6-(naphthalen-2-yl)-2-oxo-1,2-dihydropyridin-3-yl)acetate], on EP3 receptor [1], the Ki was determined as 76 nM. At EP3 receptor [2], the IC50 worked out at 671 nM.

For the molecule `CC(C)/C(=C1/OC(=O)NC1=O)c1ccc(-c2ccc3cccc(F)c3c2)[nH]c1=O` [Compound #303, (Z)-5-(1-(6-(8-fluoronaphthalen-2-yl)-2-oxo-1,2-dihydropyridin-3-yl)-2-methylpropylidene)oxazolidine-2,4-dione], the Ki at EP3 receptor [1] is 14 nM. The half-maximal inhibitory concentration (IC50) on EP3 receptor [2] came out at 1280 nM.

Turning to `CC(C)/C(Cc1ccc(-c2ccc3cccc(F)c3c2)[nH]c1=O)=C1/OC(=O)NC1=O` [Compound #306, (E)-5-(1-(6-(8-fluoronaphthalen-2-yl)-2-oxo-1,2-dihydropyridin-3-yl)-3-methylbutan-2-ylidene)oxazolidine-2,4-dione], the Ki at EP3 receptor [1] came out at 54 nM. Moreover, the IC50 at EP3 receptor [2] was 111 nM.

For `CC(C)C(Cc1ccc(-c2ccc3cccc(F)c3c2)[nH]c1=O)C1OC(=O)NC1=O` (stereo not shown) [Compound #308, 5-(1-(6-(8-fluoronaphthalen-2-yl)-2-oxo-1,2-dihydropyridin-3-yl)-3-methylbutan-2-yl)oxazolidine-2,4-dione], at EP3 receptor [1], the Ki amounted to 46 nM. Further, the IC50 at EP3 receptor [2] amounted to 210 nM.

Turning to `CC(C)(CC1OC(=O)NC1=O)c1ccc(-c2ccc3cccc(F)c3c2)[nH]c1=O` (stereo not shown) [compound 1, 5-(2-(6-(8-fluoronaphthalen-2-yl)-2-oxo-1,2-dihydropyridin-3-yl)-2-methylpropyl) oxazolidine-2,4-dione], the Ki at EP3 receptor [1] is 39 nM. For the same molecule, the IC50 on EP3 receptor [2] is 88 nM.

Consider `O=C1NC(=O)C(CC2(c3ccc(-c4ccc5cccc(F)c5c4)[nH]c3=O)CCCC2)O1` (stereo not shown) [compound 7, 5-((1-(6-(8-fluoronaphthalen-2-yl)-2-oxo-1,2-dihydropyridin-3-yl)cyclopentyl)methyl) oxazolidine-2,4-dione], for which, on EP3 receptor [1], the inhibition constant Ki amounted to 39 nM. Besides, the IC50 at EP3 receptor [2] was 149 nM.

Consider `CCC(CC)(CC1OC(=O)NC1=O)c1ccc(-c2ccc3cccc(F)c3c2)[nH]c1=O` (stereo not shown) [compound 9, 5-(2-ethyl-2-(6-(8-fluoronaphthalen-2-yl)-2-oxo-1,2-dihydropyridin-3-yl)butyl)oxazolidine-2,4-dione], for which the Ki on EP3 receptor [1] worked out at 23 nM. Besides, the IC50 at EP3 receptor [2] worked out at 108 nM.

For the molecule `CCn1ncc2c(F)c(-c3ccc(C(/C=C4/OC(=O)NC4=O)(CC)CC)c(=O)[nH]3)ccc21` [compound 12, (E)-5-(2-ethyl-2-(6-(1-ethyl-4-fluoro-1H-indazol-5-yl)-2-oxo-1,2-dihydropyridin-3-yl)butylidene)oxazolidine-2,4-dione], on EP3 receptor [1], the Ki was found to be 1350 nM. At EP3 receptor [2], the IC50 is > 20000 nM.

Take `CCn1ncc2c(F)cc(-c3ccc(C(/C=C4\CCNC4=O)(CC)CC)c(=O)[nH]3)cc21` [compound 13, (E)-6-(1-ethyl-4-fluoro-1H-indazol-6-yl)-3-(3-((2-oxopyrrolidin-3-ylidene)methyl)pentan-3-yl)pyridin-2(1H)-one]: the Ki on EP3 receptor [1] was found to be 3 nM. The 50% inhibitory concentration (IC50) at EP3 receptor [2] was determined as 22 nM.

Broadly, the Ki is a measure of affinity in units of concentration, obtained from inhibition or displacement. By IC50 is commonly meant the concentration needed to halve the response being measured.

These data come from patent US10336701B2, “Pyridin-2-one derivatives of formula (II) useful as EP3 receptor antagonists” (Janssen Pharmaceutica NV, priority 2017, dated 2019).
